Results from patent US10034886B2, “GLP-1 receptor modulators” (Celgene International II SÀRL, priority 2014, dated 2018).
Where two headings read alike, the source gives them in different places.

Molecular target: T1, GLP-1R (Homo sapiens, UniProt P43220)
T1 construct: host or cells: GLP-1R CRE-bla CHO-K1 cells
Test: EC20 GLP-1(9-36) PAM cAMP assay: dose response of compound in the presence of fixed concentration of GLP-1(9-36)
Format: cell-based
Conditions: GLP-1R CRE-bla CHO-K1 cells, read-out: EC20 GLP-1(9-36) PAM EC50
Outline: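 Positive allosteric modulation read as cAMP accumulation: compound titrations (12 points) combined with an EC20 level of GLP-1(9-36) on CHO-K1 GLP-1R CRE-bla cells, IBMX present, 30 min, 37 °C, pH 7.4 buffer. Luminescence converted to cAMP via standards; non-linear fit gave EC50 and Emax.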

[1] = dose response of compound in presence of fixed concentration of GLP-1(9-36)
[2] = compound dose response with fixed concentration of GLP-1(9-36)

T1 sequence (P43220 24-463): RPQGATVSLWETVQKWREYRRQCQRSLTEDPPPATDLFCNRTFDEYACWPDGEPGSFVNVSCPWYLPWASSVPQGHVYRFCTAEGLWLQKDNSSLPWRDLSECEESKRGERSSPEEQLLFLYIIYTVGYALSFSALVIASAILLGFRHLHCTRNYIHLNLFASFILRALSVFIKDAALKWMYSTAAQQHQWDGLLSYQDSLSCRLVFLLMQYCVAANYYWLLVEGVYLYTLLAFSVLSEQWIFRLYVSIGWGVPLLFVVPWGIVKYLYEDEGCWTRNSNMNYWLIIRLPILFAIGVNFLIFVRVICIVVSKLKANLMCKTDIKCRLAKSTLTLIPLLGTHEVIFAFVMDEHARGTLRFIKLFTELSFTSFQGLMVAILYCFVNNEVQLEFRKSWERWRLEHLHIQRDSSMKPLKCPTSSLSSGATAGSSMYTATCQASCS
T1 sequence (P01275 100-127 partner limits assumed): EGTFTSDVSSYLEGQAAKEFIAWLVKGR

| Structure (SMILES) | EC50 [1] [nM] | EC50 [2] [nM] |
| --- | --- | --- |
| CC[C@H]1CC[C@H](c2ccc(-c3cnc(-c4ccc(C[C@H](NC(=O)c5ccc(C(C)C)s5)C(=O)N5CC(C(=O)O)C5)cc4)nc3)cc2)CC1 [Compound 1167] | < 800 | – |
| CCCCCCCOc1ccc(-c2cnc(-c3ccc(CC(NC(=O)c4ccc(C(C)(C)C)s4)C(=O)N[C@H](C(=O)O)C(C)C)cc3)nc2)cc1 (stereo partly drawn) [Compound 407] | < 800 | – |
| CCC[C@H]1CC[C@H](C2CCN(c3cnc(-c4ccc(C[C@H](NC(=O)c5ccc(C(C)(C)C)s5)C(=O)N[C@@H](C(=O)O)C5CC5)cc4)nc3)CC2)CC1 [Compound 1444] | – | < 800 |
| CCCCCCCOc1ccc(-c2cnc(-c3ccc(C[C@H](NC(=O)c4ccc(C(C)(C)C)s4)C(=O)N[C@H](C(=O)O)[C@@H](C)O)cc3)nc2)cc1 [Compound 645] | < 800 | – |
| CCCCCCCOc1ccc(-c2cnc(-c3ccc(C[C@H](NC(=O)c4ccc(C(C)(C)C)s4)C(=O)N[C@@H](CC(=O)NC)C(=O)O)cc3)nc2)cc1 [Compound 512] | < 800 | – |
| CCCCCCCOc1ccc(-c2cnc(-c3ccc(C[C@H](NC(=O)c4ccc(CCCC)cc4)C(=O)N4CC[C@H](C(=O)O)C4)cc3)nc2)cc1 [Compound 850] | 2500 to 5000 | – |
| C[C@@H](NC(=O)[C@H](Cc1ccc(-c2ncc(-c3ccc(N4CCCCC4)cc3)cn2)cc1)NC(=O)c1ccc(C(C)(C)C)s1)C(=O)O [Compound 740] | 2500 to 5000 | – |
| C[C@@H](NC(=O)[C@H](Cc1ccc(-c2ncc(/C=C\CCCc3ccccc3)cn2)cc1)NC(=O)c1ccc(C(C)(C)C)s1)C(=O)O [Compound 1051] | 5000 to 10000 | – |
| CC[C@H]1CC[C@H](c2ccc(-c3cnc(-c4ccc(C[C@H](NC(=O)c5ccc(C(C)(C)C)s5)C(=O)N5CC(C(=O)O)C5)cc4)nn3)cc2)CC1 [Compound 1337] | – | < 800 |
| CCC[C@H]1CC[C@H](C2CCN(c3cnc(-c4ccc(C[C@H](NC(=O)c5ccc(C(C)(C)C)s5)C(=O)N5CCC(C(=O)O)CC5)cc4)nc3)CC2)CC1 [Compound 1457] | – | < 800 |
| C[C@@H](NC(=O)[C@H](Cc1ccc(-c2ncc(/C=C/c3cccc(F)c3)cn2)cc1)NC(=O)c1ccc(C(C)(C)C)s1)C(=O)O [Compound 1248] | – | 5000 to 10000 |
| CC(C)(C)c1ccc(-c2cnc(-c3ccc(C[C@H](NC(=O)c4ccc(C(C)(C)C)s4)C(=O)N4CC[C@H](C(=O)O)C4)cc3)nc2)cc1 [Compound 768] | 800 to 2500 | – |
| CCCCC[C@H]1CC[C@H](c2ccc(-c3cnc(-c4ccc(C[C@H](NC(=O)c5ccc(C(C)(C)C)s5)C(=O)N[C@H](C)C(=O)O)cc4)nc3)cc2)CC1 [Compound 1310] | – | 2500 to 5000 |
| CCCc1ccc(N2CCN(c3cnc(-c4ccc(CC(NC(=O)c5ccc(C(C)(C)C)s5)C(=O)N5CC(C(=O)O)C5)cc4)nc3)C(=O)C2)cc1 (racemic) [Compound 1411] | – | 800 to 2500 |
| CCCCCCCOc1ccc(-c2cnc(-c3ccc(C[C@H](NC(=O)c4ccc(C(C)(C)C)cc4)C(=O)NCC(O)C(=O)O)cc3)nc2)cc1 (stereo partly drawn) [Compound 554] | < 800 | – |
| CC(C)CCCOc1ccc(-c2cnc(-c3ccc(C[C@H](NC(=O)c4ccc(C(C)(C)C)s4)C(=O)N4CC(C(=O)O)C4)cc3)nc2)cc1 [Compound 798, (S)-1-(2-(5-(tert-butyl)thiophene-2-carboxamido)-3-(4-(5-(4-((4-methylpentyl)oxy)phenyl)-pyrimidin-2-yl)phenyl)propanoyl)azetidine-3-carboxylic acid] | 800 to 2500 | – |
| C[C@@H](NC(=O)[C@H](Cc1ccc(-c2ncc(-c3ccc(C4CCC(F)(F)CC4)cc3)cn2)cc1)NC(=O)c1ccc(C(C)(C)C)s1)C(=O)O [Compound 1142] | < 800 | – |
| CCCCCCCOc1ccc(-c2cnc(-c3ccc(C[C@H](NC(=O)c4ccc(C(C)(C)C)s4)C(=O)N[C@H](C(=O)O)C4CC4)cc3)nc2)cc1 [Compound 405] | < 800 | – |
| CCCCCCCOc1ccc(-c2cnc(-c3ccc(C[C@H](NC(=O)c4ccc(C(C)(C)C)s4)C(=O)NC(C(=O)O)C(O)c4cccnn4)cc3)nc2)cc1 (stereo partly drawn) [Compound 915] | 800 to 2500 | – |
| Cc1cccc(-c2ccc(-c3cnc(-c4ccc(C[C@H](NC(=O)c5ccc(C(C)(C)C)s5)C(=O)N[C@H](C)C(=O)O)cc4)nc3)cc2)c1 [Compound 1285] | – | < 800 |
| CCCCCCCOc1ccc(-c2cnc(-c3ccc(C[C@H](NC(=O)c4ccc(C(C)(C)C)s4)C(=O)N[C@H](C)C(=O)O)cc3)nc2)nc1 [Compound 1063] | < 800 | – |
| CCCCCCCOc1ccc(-c2cnc(-c3ccc(C[C@H](NC(=O)c4ccc(C(C)(C)C)cc4C)C(=O)N[C@H](C)C(=O)O)cc3)nc2)cc1 [Compound 843] | 800 to 2500 | – |
| CCCCCCCOc1ccc(-c2cnc(-c3ccc(C[C@H](NC(=O)c4ccc(C(C)(C)C)s4)C(=O)NC4CC(N)C4)cc3)nc2)cc1 (stereo partly drawn) [Compound 603] | 800 to 2500 | – |
| CCCCCCCOc1ccc(-c2cnc(-c3ccc(C[C@H](NC(=O)c4ccc(C(C)(C)C)s4)C(=O)N[C@@H](C(=O)O)[C@H](C)CC)cc3)nc2)cc1 [Compound 658] | < 800 | – |

| Structure (SMILES) | EC50 [1] [nM] | EC50 [2] [nM] |
| --- | --- | --- |
| CCC[C@H]1CC[C@H](C2CCN(c3cnc(-c4ccc(C[C@H](NC(=O)c5ccc(OC(C)(C)C)cc5)C(=O)N5CC(C(=O)O)C5)cc4)nc3)CC2)CC1 [Compound 1524] | – | < 800 |
| CCC[C@H]1CC[C@H](c2ccc(-c3cnc(-c4ccc(C[C@H](NC(=O)c5ccc(C(C)(C)C)s5)C(=O)O)cc4)nc3)cc2)CC1 [Compound 1346] | – | < 800 |
| CCCc1ccc(-c2ccc(-c3cnc(-c4ccc(C[C@H](NC(=O)c5ccc(C6CC6)cc5)C(=O)N5CC(C(=O)O)C5)cc4)nc3)c(F)c2)cc1 [Compound 1410] | – | < 800 |
| CCCCCCOc1ccc(-c2cnc(-c3ccc(C[C@H](NC(=O)c4ccc(C(C)(C)C)s4)C(=O)NC(C(=O)O)C(O)c4ccccc4)cc3)nc2)cc1 (stereo partly drawn) [Compound 943] | 800 to 2500 | – |
| CCC[C@H]1CC[C@H](C2CCN(c3cnc(-c4ccc(C[C@H](NC(=O)c5ccc(C(C)(C)C)s5)C(=O)N5C6CCC5[C@@H](C(=O)O)C6)cc4)nc3)CC2)CC1 (stereo partly drawn) [Compound 1448] | – | 5000 to 10000 |
| CCCCCCCOc1ccc(-c2cnc(-c3ccc(C[C@H](NC(=O)c4ccc(C(C)(C)C)s4)C(=O)N[C@H]4C[C@H](C(=O)O)C4)cc3)nc2)cc1 [Compound 875] | 800 to 2500 | – |
| CCCCCCCOc1ccc(-c2cnc(-c3ccc(C[C@H](NC(=O)c4ccc(C(F)(F)F)cc4)C(=O)N[C@H](C)C(=O)O)cc3)nc2)cc1 [Compound 822] | 2500 to 5000 | – |
| CCCCCCCOc1ccc(-c2cnc(-c3ccc(C[C@H](NC(=O)c4oc(C(C)(C)C)cc4C)C(=O)N4CC(C(=O)O)C4)cc3)nc2)cc1 [Compound 1101] | 800 to 2500 | – |
| CCCCCCCOc1ccc(-c2cnc(-c3ccc(C[C@H](NC(=O)c4ccc(C(C)(C)C)cc4)C(=O)N[C@@H](CC(=O)O)C(=O)N4CCCCC4)cc3)nc2)cc1 [Compound 504] | 2500 to 5000 | – |
| CCC[C@H]1CC[C@H](C2CCN(c3cnc(-c4ccc(C[C@H](NC(=O)c5ccc(C(C)(C)C)cc5)C(=O)N5CC(C(=O)O)C5)cc4)nc3)CC2)CC1 [Compound 1414] | – | < 800 |
| CCCCCCCOc1ccc(-c2cnc(-c3ccc(C[C@H](NC(=O)c4ccc(C(C)(C)C)cc4)C(=O)N4CC(O)CC(C(=O)O)C4)cc3)nc2)cc1 (stereo partly drawn) [Compound 662] | < 800 | – |
| CCCCCCCOc1ccc(-c2cnc(-c3ccc(C[C@H](NC(=O)c4ccc(C(C)C)s4)C(=O)N4CC[C@H](C(=O)O)C4)cc3)nc2)cc1 [Compound 845] | 2500 to 5000 | – |
| CCC[C@H]1CC[C@H](C2CCN(c3cnc(-c4ccc(C[C@H](NC(=O)c5ccc(C(C)(C)C)s5)C(=O)N[C@H]5C[C@H](C(=O)O)C5)cc4)nc3)CC2)CC1 [Compound 1447] | – | < 800 |
| CCCCCCCOc1ccc(-c2cnc(-c3ccc(CC(NC(=O)c4ccc(C(C)(C)C)s4)C(=O)N[C@@H](Cc4ccccc4)C(=O)O)cc3)nc2)cc1 (stereo partly drawn) [Compound 415] | < 800 | – |
| CC(C)(C)c1ccc(-c2cnc(-c3ccc(CC(NC(=O)c4ccc(C(C)(C)C)s4)C(=O)O)cc3F)nc2)cc1 (stereo not drawn) [Compound 391] | 2500 to 5000 | – |
| CCc1ccc(-c2ccc(-c3cnc(-c4ccc(C[C@H](NC(=O)c5ccc(C(C)(C)C)s5)C(=O)N[C@H](C)C(=O)O)cc4)nc3)c(F)c2)cc1 [Compound 1173] | < 800 | – |
| CC(C)(C)c1ccc(C(=O)N[C@@H](Cc2ccc(-c3ncc(-c4ccc(-c5ccc(C6CCC6)cc5)cc4F)cn3)cc2)C(=O)N2CC(C(=O)O)C2)s1 [Compound 1210] | – | < 800 |
| CC[C@H]1CC[C@H](c2ccc(-c3cnc(-c4ccc(C[C@H](NC(=O)c5ccc(C(C)(C)C)s5)C(=O)N5CCC[C@H]5C(=O)O)cc4)nc3)cc2)CC1 [Compound 1128, ((S)-2-(5-(tert-butyl)thiophene-2-carboxamido)-3-(4-(5-(4-((1r,4r)-4-ethylcyclohexyl)phenyl)pyrimidin-2-yl)phenyl)propanoyl)-L-proline] | < 800 | – |
| CCCOc1ccc(-c2ccc(-c3cnc(-c4ccc(C[C@H](NC(=O)c5ccc(C(C)(C)C)s5)C(=O)N[C@H](C)C(=O)O)cc4)nc3)cc2)cc1 [Compound 1288] | – | 800 to 2500 |
| CC[C@H]1CC[C@H](c2ccc(-c3cnc(-c4ccc(C[C@H](NC(=O)c5ccc(C(C)(C)C#N)s5)C(=O)O)cc4)nc3)cc2)CC1 [Compound 1373] | – | < 800 |
| CCCCCCCOc1ccc(-c2cnc(-c3ccc(C[C@H](NC(=O)c4ccc(C(C)(C)CC)cc4)C(=O)N[C@H](C)C(=O)O)cc3)nc2)cc1 [Compound 834] | 800 to 2500 | – |
| CC(C)(C)c1ccc(C(=O)N[C@@H](Cc2ccc(-c3ncc(-c4nc(CC5CCCCC5)no4)cn3)cc2)C(=O)NCCC(=O)O)cc1 [Compound 747] | 2500 to 5000 | – |
| CCCCCCCOc1ccc(-c2cnc(-c3ccc(C[C@H](NC(=O)c4ccc(C(C)(C)C)cc4)C(=O)NC(C(=O)O)C4CCOCC4)cc3)nc2)cc1 (stereo partly drawn) [Compound 540] | < 800 | – |
| CC[C@H]1CC[C@H](c2ccc(-c3cnc(-c4ccc(C[C@H](NC(=O)c5ccc(CC(C)C)s5)C(=O)O)cc4)nc3)cc2)CC1 [Compound 1381] | – | 5000 to 10000 |
